{
  "source": "patent US9968577B2",
  "about": "“Treatment and prevention of bone loss using resolvins” (Forsyth Dental Infirmary for Children, priority 2005, dated 2018)",
  "tested_on": "P. gingivalis-induced periodontitis",
  "assay": "Ligature + P. gingivalis experimental periodontitis, topical application of Resolvin E1",
  "assay_type": "in vivo, New Zealand White rabbits",
  "key": {"[1]": {"settings": "rabbit, topical, every other day for 6 weeks, compared with baseline"}},
  "data": [
    {"smiles": "CC[C@@H](O)/C=C/C=C\\C[C@@H](O)/C=C/C=C/C=C\\[C@@H](O)CCCC(=O)O", "note": "[Resolvin E1]", "values": [
      {"measurement": "bone loss", "setting": "rabbit model, topical administration", "result": "prevents bone loss"},
      {"measurement": "soft tissue condition (mandibles, FIG. 2)", "setting": "rabbit, topical resolvin E1 7 μg/μL in ethanol every other day for 6 weeks, starting six weeks after ligature and P. gingivalis, vs control group", "result": "distinctly healthier than the control group"},
      {"measurement": "deposition of bone (bone growth), conclusion", "setting": "rabbit, topical, every other day for 6 weeks", "result": "assisted in deposition of bone"},
      {"measurement": "hard tissue crestal distance measurements (FIG. 4 and FIG. 5)", "setting": "rabbit, topical, every other day for 6 weeks, buccal and lingual, defleshed jaws", "result": "same results"},
      {"measurement": "soft tissue pocket depth measurements (FIG. 3)", "setting": "rabbit, topical, every other day for 6 weeks, buccal and lingual, vs vehicle alone", "result": "lower"},
      {"measurement": "hard-tissue-infrabony pocket depth measurements (FIG. 6)", "setting": "[1]", "result": "improvement over baseline"},
      {"measurement": "soft tissue pocket depth measurements vs baseline (FIG. 3)", "setting": "[1]", "result": "improvement over baseline"},
      {"measurement": "tooth mobility (FIG. 7)", "setting": "[1]", "result": "improvement over baseline"}
    ]}
  ]
}
